Test results reported in the supplement of paper PMC10307832.

Columns and labels:
Assay in all cases: relative viability (nuclei count vs DMSO), 5 days (fraction); higher = more cells survive
[1] = compound: C1/C(=C\C2=CC=CS2)/C(=O)/C(=C/C3=CC=CS3)/C1 + CC1(C)CCC(c2ccc(Cl)cc2)=C(CN2CCN(c3ccc(C(=O)NS(=O)(=O)c4ccc(N[C@H](CCN5CCOCC5)CSc5ccccc5)c(S(=O)(=O)C(F)(F)F)c4)cc3)CC2)C1 [Navitoclax] (partner 0.5 µM)
In short: (§1)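 Relative viability equals treated-well nuclei counts divided by vehicle-well nuclei counts. Counts came from 4× images of lung cancer cell lines grown in 1536-well plates for 5 days after pin-tool dosing on the day after seeding. Dosing used one drug alone or a fixed anchor-drug dose plus five library-drug doses (not always all listed) in √10 steps, and values are medians of duplicate plates.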

[2] = compound: C1/C(=C\C2=CC=CS2)/C(=O)/C(=C/C3=CC=CS3)/C1 + CS(=O)(=O)CCNCc1ccc(-c2ccc3ncnc(Nc4ccc(OCc5cccc(F)c5)c(Cl)c4)c3c2)o1 [Lapatinib] (partner 2 µM)
In short: as §1

TPCA-1 + Bortezomib = compound: C1=CC(=CC=C1C2=CC(=C(S2)NC(=O)N)C(=O)N)F [TPCA-1] + CC(C)C[C@H](NC(=O)[C@H](Cc1ccccc1)NC(=O)c1cnccn1)B(O)O [Bortezomib] (partner 0.002 µM)
In short: as §1

TPCA-1 + Linsitinib = compound: C1=CC(=CC=C1C2=CC(=C(S2)NC(=O)N)C(=O)N)F [TPCA-1] + C[C@]1(O)C[C@@H](c2nc(-c3ccc4ccc(-c5ccccc5)nc4c3)c3c(N)nccn32)C1 [Linsitinib] (partner 1 µM)
In short: as §1

Cell Line | relative viability ([1]; first compound 0.2 µM) | relative viability ([1]; first compound 0.6325 µM) | relative viability ([1]; first compound 2 µM) | relative viability ([1]; first compound 6.325 µM) | relative viability ([1]; first compound 20 µM) | relative viability ([2]; first compound 0.2 µM) | relative viability ([2]; first compound 0.6325 µM) | relative viability ([2]; first compound 2 µM) | relative viability ([2]; first compound 6.325 µM) | relative viability ([2]; first compound 20 µM) | relative viability (TPCA-1 + Bortezomib; first compound 0.04 µM) | relative viability (TPCA-1 + Bortezomib; first compound 0.1265 µM) | relative viability (TPCA-1 + Bortezomib; first compound 0.4 µM) | relative viability (TPCA-1 + Bortezomib; first compound 1.265 µM) | relative viability (TPCA-1 + Bortezomib; first compound 4 µM) | relative viability (TPCA-1 + Linsitinib; first compound 0.04 µM) | relative viability (TPCA-1 + Linsitinib; first compound 0.1265 µM) | relative viability (TPCA-1 + Linsitinib; first compound 0.4 µM) | relative viability (TPCA-1 + Linsitinib; first compound 1.265 µM) | relative viability (TPCA-1 + Linsitinib; first compound 4 µM)
NCI-H1355 | 0.958 | 0.812 | 0.904 | 0.853 | 0.933 | 0.964 | 0.951 | 1.04 | 0.908 | 0.911 | 1.25 | 1.09 | 1.15 | 1.01 | 0.984 | 0.99 | 0.709 | 0.737 | 0.711 | 0.667
EKVX | 0.999 | 0.87 | 0.916 | 0.912 | 0.919 | 0.184 | 0.207 | 0.264 | 0.185 | 0.199 | 0.952 | 0.896 | 1.19 | 0.955 | 0.601 | 1.1 | 0.868 | 1.08 | 0.69 | 0.846
NCI-H441 | 0.779 | 0.769 | 0.523 | 0.527 | 0.572 | – | – | – | – | – | 0.63 | 0.32 | 0.42 | 0.266 | 0.404 | 0.669 | 0.287 | 0.569 | 0.328 | 0.188
NCI-H1975 | 1.09 | 1.19 | 1.04 | 0.912 | 1.08 | 1.01 | 0.789 | 0.966 | 0.613 | 0.823 | 0.327 | 0.417 | 0.321 | 0.437 | 0.26 | 0.93 | 0.916 | 0.971 | 0.918 | 0.946
NCI-H1563 | – | – | – | – | – | 0.996 | 0.903 | 0.97 | 0.953 | 0.955 | 0.924 | 0.875 | 0.836 | 0.741 | 0.793 | 1.2 | 1.23 | 1.17 | 1.12 | 1.16
NCI-H2170 | 0.655 | 0.565 | 0.678 | 0.516 | 0.547 | 0.301 | 0.255 | 0.282 | 0.232 | 0.283 | – | – | – | – | – | – | – | – | – | –
NCI-H1395 | 1.28 | 1.65 | 1.23 | 1.04 | 1.15 | 1.04 | 1.13 | 1.11 | 0.886 | 1.15 | – | – | – | – | – | 1.55 | 0.954 | 1.07 | 0.959 | 0.884
NCI-H1944 | 1.14 | 0.966 | 1.08 | 0.899 | 0.992 | 0.735 | 0.695 | 0.864 | 0.782 | 0.748 | – | – | – | – | – | 1.24 | 1.13 | 1.2 | 1.13 | 0.987
NCI-H1650 | 1.11 | 1.15 | 1.21 | 1.1 | 1.24 | 0.654 | 0.735 | 0.961 | 0.748 | 0.803 | 0.26 | 0.219 | 0.204 | 0.203 | 0.208 | – | – | – | – | –
ChaGo-K-1 | 1.01 | 0.964 | 1.11 | 0.698 | 0.727 | – | – | – | – | – | 0.83 | 0.995 | 1.11 | 0.903 | 0.377 | – | – | – | – | –
NCI-H650 | – | – | – | – | – | 0.944 | 1.17 | 1.05 | 0.925 | 0.989 | 0.877 | 0.898 | 0.923 | 0.326 | 0.554 | 1.08 | 0.755 | 0.89 | 0.382 | 0.465
NCI-H661 | – | – | – | – | – | 0.465 | 0.49 | 0.507 | 0.475 | 0.516 | 0.651 | 0.662 | 0.986 | 0.753 | 0.501 | 0.524 | 0.487 | 0.706 | 0.534 | 0.411
ABC-1 | – | – | – | – | – | 1.28 | 1.09 | 1.03 | 0.971 | 1.27 | 0.369 | 0.225 | 0.291 | 0.297 | 0.293 | 0.936 | 0.714 | 0.662 | 0.579 | 0.524
LK-2 | 0.824 | 0.956 | 0.702 | 0.862 | 0.89 | 0.897 | 0.887 | 1.2 | 1.05 | 0.988 | – | – | – | – | – | 0.349 | 0.332 | 0.507 | 0.52 | 0.196
SK-MES-1 | 1.28 | 1.3 | 1.17 | 1 | 1.14 | 0.498 | 0.45 | 0.486 | 0.322 | 0.395 | – | – | – | – | – | 1.17 | 0.985 | 1.01 | 0.859 | 0.634
NCI-H1793 | 0.376 | 0.512 | 0.503 | 0.402 | 0.519 | 0.913 | 0.611 | 0.86 | 0.519 | 0.674 | – | – | – | – | – | 1.05 | 0.674 | 0.934 | 0.683 | 0.727
A549 | 1.32 | 1.33 | 1.24 | 1.02 | 1.19 | 1.04 | 0.957 | 1.05 | 0.932 | 0.902 | – | – | – | – | – | 0.627 | 0.567 | 0.638 | 0.469 | 0.314
LCLC-103H | – | – | – | – | – | – | – | – | – | – | 1.07 | 1.05 | 1.1 | 0.987 | 1.02 | 1.24 | 0.99 | 1.08 | 1.12 | 1.07
NCI-H358 | – | – | – | – | – | 0.435 | 0.482 | 0.475 | 0.459 | 0.424 | – | – | – | – | – | 0.902 | 0.557 | 0.691 | 0.487 | 0.339
